EC50 data for seven compounds are collected here from patent US9758561B2 (priority 2014, dated 2017).

In this assay the target is T1, human GLP-1 receptor (Homo sapiens, UniProt P43220).
T1 construct: expressed in transfected cells; host or cells: HEK-293
T1 sequence (P43220 24-463): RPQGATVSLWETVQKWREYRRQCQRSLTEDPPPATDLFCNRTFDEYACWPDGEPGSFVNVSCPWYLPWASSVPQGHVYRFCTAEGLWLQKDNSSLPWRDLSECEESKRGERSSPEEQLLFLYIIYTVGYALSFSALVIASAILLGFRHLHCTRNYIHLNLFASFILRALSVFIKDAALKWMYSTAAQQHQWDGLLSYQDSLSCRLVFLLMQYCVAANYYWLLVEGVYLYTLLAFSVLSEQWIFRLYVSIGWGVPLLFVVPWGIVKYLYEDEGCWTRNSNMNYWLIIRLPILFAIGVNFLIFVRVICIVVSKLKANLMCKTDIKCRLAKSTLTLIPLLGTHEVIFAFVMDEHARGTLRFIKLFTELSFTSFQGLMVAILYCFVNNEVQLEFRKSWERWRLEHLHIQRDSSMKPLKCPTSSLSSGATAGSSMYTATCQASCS
Put plainly: cAMP response of HEK-293 cells stably expressing human GLP-1 receptor (HTRF). The settings on record: Table 6; read-out: EC50 hGLP-1R. It is filed as cell-based. The protocol:
For preparation, cells were split into T175 culture flasks and grown overnight to near confluency in medium (DMEM/10% FBS). Medium was then removed and cells washed with PBS lacking calcium and magnesium, followed by proteinase treatment with accutase (Sigma-Aldrich cat. no. A6964). Detached cells were washed and resuspended in assay buffer (1×HBSS; 20 mM HEPES, 0.1% BSA, 2 mM IBMX) and cellular density determined. They were then diluted to 400000 cells/ml and 25 μl-aliquots dispensed into the wells of 96-well plates. For measurement, 25 μl of test compound in assay buffer was added to the wells, followed by incubation for 30 minutes at room temperature. […] Potencies of peptidic compounds at the GLP-1, glucagon and GIP receptors were determined by exposing cells expressing human glucagon receptor (hGlucagon R), human GIP receptor (hGIP-R) or human GLP-1 receptor (hGLP-1R) to the listed compounds at increasing concentrations and measuring the formed cAMP as described in Methods.
Consider `CCCCCCCCCCCCCCCC(=O)N[C@@H](CCC(=O)N[C@@H](CCC(=O)NCCCC[C@H](NC(=O)[C@H](CCC(N)=O)NC(=O)[C@H](CCCCN)NC(=O)[C@H](CO)NC(=O)[C@H](CC(C)C)NC(=O)[C@H](CC(=O)O)NC(=O)[C@H](CO)NC(=O)[C@@H](NC(=O)[C@H](Cc1ccccc1)NC(=O)[C@@H](NC(=O)CNC(=O)[C@H](CCC(N)=O)NC(=O)[C@@H](CO)NC(=O)[C@@H](N)Cc1c[nH]cn1)[C@@H](C)O)[C@@H](C)O)C(=O)N[C@@H](CC(=O)O)C(=O)N[C@@H](CCC(=O)O)C(=O)N[C@@H](CCC(=O)O)C(=O)N[C@@H](C)C(=O)N[C@H](C(=O)N[C@@H](CCCNC(=N)N)C(=O)N[C@@H](CC(C)C)C(=O)N[C@@H](Cc1ccccc1)C(=O)N[C@H](C(=O)N[C@@H](CCC(=O)O)C(=O)N[C@@H](Cc1c[nH]c2ccccc12)C(=O)N[C@@H](CC(C)C)C(=O)NC(C)(C)C(=O)N[C@@H](C)C(=O)NCC(=O)NCC(=O)N1CCC[C@H]1C(=O)N[C@@H](CO)C(=O)N[C@@H](CO)C(=O)NCC(=O)N[C@@H](C)C(=O)N1CCC[C@H]1C(=O)N1CCC[C@H]1C(=O)N1CCC[C@H]1C(=O)N[C@@H](CO)C(N)=O)[C@@H](C)CC)C(C)C)C(=O)O)C(=O)O` [SEQ ID NO: 17, H-dSer-Q-G-T-F-T-S-D-L-S-K-Q-K(γE-γE-x53)-D-E-E-A-V-R-L-F-I-E-W-L-Aib-A-G-G-P-S-S-G-A-P-P-P-S-NH2], for which the concentration giving a half-maximal response (EC50) is 2.4 pM.
Turning to `CCCCCCCCCCCCCCCCCC(=O)N[C@@H](CCC(=O)NCCOCCOCC(=O)NCCOCCOCC(=O)NCCCC[C@H](NC(=O)[C@H](CCC(N)=O)NC(=O)[C@H](CCCCN)NC(=O)[C@H](CO)NC(=O)[C@H](CC(C)C)NC(=O)[C@H](CC(=O)O)NC(=O)[C@H](CO)NC(=O)[C@@H](NC(=O)[C@H](Cc1ccccc1)NC(=O)[C@@H](NC(=O)CNC(=O)[C@H](CCC(N)=O)NC(=O)[C@@H](CO)NC(=O)[C@@H](N)Cc1c[nH]cn1)[C@@H](C)O)[C@@H](C)O)C(=O)N[C@@H](CC(=O)O)C(=O)N[C@@H](CCC(=O)O)C(=O)N[C@@H](CCC(=O)O)C(=O)N[C@@H](C)C(=O)N[C@@H](C)C(=O)N[C@@H](CCCNC(=N)N)C(=O)N[C@@H](CC(C)C)C(=O)N[C@@H](Cc1ccccc1)C(=O)N[C@H](C(=O)N[C@@H](CCC(=O)O)C(=O)N[C@@H](Cc1c[nH]c2ccccc12)C(=O)N[C@@H](CC(C)C)C(=O)NC(C)(C)C(=O)N[C@@H](C)C(=O)NCC(=O)NCC(=O)N1CCC[C@H]1C(=O)N[C@@H](CO)C(=O)N[C@@H](CO)C(=O)NCC(=O)N[C@@H](C)C(=O)N1CCC[C@H]1C(=O)N1CCC[C@H]1C(=O)N1CCC[C@H]1C(=O)N[C@@H](CO)C(N)=O)[C@@H](C)CC)C(=O)O` [SEQ ID NO: 21, H-dSer-Q-G-T-F-T-S-D-L-S-K-Q-K(AEEAc-AEEAc- E-x70)-D-E-E-A-A-R-L-F-I-E-W-L-Aib-A-G-G-P-S-S-G-A-P-P-P-S-NH2], the EC50 turned out to be 1 pM.
As for `CCCCCCCCCCCCCCCCCC(=O)N[C@@H](CCC(=O)NCCCC[C@H](NC(=O)[C@H](CCC(N)=O)NC(=O)[C@H](CCCCN)NC(=O)[C@H](CO)NC(=O)[C@H](CC(C)C)NC(=O)[C@H](CC(=O)O)NC(=O)[C@H](CO)NC(=O)[C@@H](NC(=O)[C@H](Cc1ccccc1)NC(=O)[C@@H](NC(=O)CNC(=O)[C@H](Cc1c[nH]cn1)NC(=O)[C@@H](CO)NC(=O)[C@@H](N)Cc1c[nH]cn1)[C@@H](C)O)[C@@H](C)O)C(=O)N[C@@H](CC(=O)O)C(=O)N[C@@H](CCC(=O)O)C(=O)N[C@@H](CCC(=O)O)C(=O)N[C@@H](C)C(=O)N[C@@H](C)C(=O)N[C@@H](CCCNC(=N)N)C(=O)N[C@@H](CC(C)C)C(=O)N[C@@H](Cc1ccccc1)C(=O)N[C@H](C(=O)N[C@@H](CCC(=O)O)C(=O)N[C@@H](Cc1c[nH]c2ccccc12)C(=O)N[C@@H](CC(C)C)C(=O)NC(C)(C)C(=O)N[C@@H](C)C(=O)NCC(=O)NCC(=O)N1CCC[C@H]1C(=O)N[C@@H](CO)C(=O)N[C@@H](CO)C(=O)NCC(=O)N[C@@H](C)C(=O)N1CCC[C@H]1C(=O)N1CCC[C@H]1C(=O)N1CCC[C@H]1C(=O)N[C@@H](CO)C(N)=O)[C@@H](C)CC)C(=O)O` [SEQ ID NO: 8, H-dSer-H-G-T-F-T-S-D-L-S-K-Q-K(γE-x70)-D-E-E-A-A-R-L-F-I-E-W-L-Aib-A-G-G-P-S-S-G-A-P-P-P-S-NH2], the EC50 turned out to be 1.8 pM.
Regarding `CCCCCCCCCCCCCCCCCC(=O)N[C@@H](CCC(=O)NCCCC[C@H](NC(=O)[C@H](CCC(N)=O)NC(=O)[C@H](CCCCN)NC(=O)[C@H](CO)NC(=O)[C@H](CC(C)C)NC(=O)[C@H](CC(=O)O)NC(=O)[C@H](CO)NC(=O)[C@@H](NC(=O)[C@H](Cc1ccccc1)NC(=O)[C@@H](NC(=O)CNC(=O)[C@H](CCC(N)=O)NC(=O)[C@@H](CO)NC(=O)[C@@H](N)Cc1c[nH]cn1)[C@@H](C)O)[C@@H](C)O)C(=O)N[C@@H](CC(=O)O)C(=O)N[C@@H](CCC(=O)O)C(=O)N[C@@H](CCC(=O)O)C(=O)N[C@@H](C)C(=O)N[C@@H](C)C(=O)N[C@@H](CCCNC(=N)N)C(=O)N[C@@H](CC(C)C)C(=O)N[C@@H](Cc1ccccc1)C(=O)N[C@H](C(=O)N[C@@H](CCC(=O)O)C(=O)N[C@@H](Cc1c[nH]c2ccccc12)C(=O)N[C@@H](CC(C)C)C(=O)NC(C)(C)C(=O)N[C@@H](CCCCN)C(=O)N[C@H](C)C(=O)NCC(=O)N1CCC[C@H]1C(=O)N[C@@H](CO)C(=O)N[C@@H](CO)C(=O)NCC(=O)N[C@@H](C)C(=O)N1CCC[C@H]1C(=O)N1CCC[C@H]1C(=O)N1CCC[C@H]1C(=O)N[C@@H](CO)C(N)=O)[C@@H](C)CC)C(=O)O` [SEQ ID NO: 25, H-dSer-Q-G-T-F-T-S-D-L-S-K-Q-K(γE-x70)-D-E-E-A-A-R-L-F-I-E-W-L-Aib-K-dAla-G-P-S-S-G-A-P-P-P-S-NH2], the EC50 was 2.1 pM.
Turning to `CCCCCCCCCCCCCCCC(=O)N[C@@H](CCC(=O)N[C@@H](CCC(=O)NCCCC[C@H](NC(=O)[C@H](CCC(N)=O)NC(=O)[C@H](CCCCN)NC(=O)[C@H](CO)NC(=O)[C@H](CC(C)C)NC(=O)[C@H](CC(=O)O)NC(=O)[C@H](CO)NC(=O)[C@@H](NC(=O)[C@H](Cc1ccccc1)NC(=O)[C@@H](NC(=O)CNC(=O)[C@H](Cc1c[nH]cn1)NC(=O)[C@@H](CO)NC(=O)[C@@H](N)Cc1c[nH]cn1)[C@@H](C)O)[C@@H](C)O)C(=O)N[C@@H](CCC(=O)O)C(=O)N[C@@H](CCC(=O)O)C(=O)N[C@@H](CCC(=O)O)C(=O)N[C@@H](C)C(=O)N[C@@H](C)C(=O)N[C@@H](CCCNC(=N)N)C(=O)N[C@@H](CC(C)C)C(=O)N[C@@H](Cc1ccccc1)C(=O)N[C@H](C(=O)N[C@@H](CCC(=O)O)C(=O)N[C@@H](Cc1c[nH]c2ccccc12)C(=O)N[C@@H](CC(C)C)C(=O)NC(C)(C)C(=O)N[C@@H](CCCCN)C(=O)N[C@H](C)C(=O)NCC(=O)N1CCC[C@H]1C(=O)N[C@@H](CO)C(=O)N[C@@H](CO)C(=O)NCC(=O)N[C@@H](C)C(=O)N1CCC[C@H]1C(=O)N1CCC[C@H]1C(=O)N1CCC[C@H]1C(=O)N[C@@H](CO)C(N)=O)[C@@H](C)CC)C(=O)O)C(=O)O` [SEQ ID NO: 27, H-dSer-H-G-T-F-T-S-D-L-S-K-Q-K(γE-γE-x53)-E-E-E-A-A-R-L-F-I-E-W-L-Aib-K-dAla-G-P-S-S-G-A-P-P-P-S-NH2], the concentration giving a half-maximal response (EC50) is 2.1 pM.
On to `CCCCCCCCCCCCCCCCCC(=O)NCCOCCOCC(=O)NCCOCCOCC(=O)NCCOCCOCC(=O)NCCCC[C@H](NC(=O)[C@H](CCC(N)=O)NC(=O)[C@H](CCCCN)NC(=O)[C@H](CO)NC(=O)[C@H](CC(C)C)NC(=O)[C@H](CC(=O)O)NC(=O)[C@H](CO)NC(=O)[C@@H](NC(=O)[C@H](Cc1ccccc1)NC(=O)[C@@H](NC(=O)CNC(=O)[C@H](CCC(N)=O)NC(=O)[C@@H](CO)NC(=O)[C@@H](N)Cc1c[nH]cn1)[C@@H](C)O)[C@@H](C)O)C(=O)N[C@@H](CC(=O)O)C(=O)N[C@@H](CCC(=O)O)C(=O)N[C@@H](CCC(=O)O)C(=O)N[C@@H](C)C(=O)N[C@@H](C)C(=O)N[C@@H](CCCNC(=N)N)C(=O)N[C@@H](CC(C)C)C(=O)N[C@@H](Cc1ccccc1)C(=O)N[C@H](C(=O)N[C@@H](CCC(=O)O)C(=O)N[C@@H](Cc1c[nH]c2ccccc12)C(=O)N[C@@H](CC(C)C)C(=O)NC(C)(C)C(=O)N[C@@H](C)C(=O)NCC(=O)NCC(=O)N1CCC[C@H]1C(=O)N[C@@H](CO)C(=O)N[C@@H](CO)C(=O)NCC(=O)N[C@@H](C)C(=O)N1CCC[C@H]1C(=O)N1CCC[C@H]1C(=O)N1CCC[C@H]1C(=O)N[C@@H](CO)C(N)=O)[C@@H](C)CC` [SEQ ID NO: 22, H-dSer-Q-G-T-F-T-S-D-L-S-K-Q-K(AEEAc-AEEAc-AEEAc-x70)-D-E-E-A-A-R-L-F-I-E-W-L-Aib-A-G-G-P-S-S-G-A-P-P-P-S-NH2], for which the EC50 came out at 1.8 pM.
As to `CCCCCCCCCCCCCCCC(=O)N[C@@H](CCC(=O)N[C@@H](CCC(=O)NCCCC[C@H](NC(=O)[C@H](CCC(N)=O)NC(=O)[C@H](CCCCN)NC(=O)[C@H](CO)NC(=O)[C@H](CC(C)C)NC(=O)[C@H](CC(=O)O)NC(=O)[C@H](CO)NC(=O)[C@@H](NC(=O)[C@H](Cc1ccccc1)NC(=O)[C@@H](NC(=O)CNC(=O)[C@H](CCC(N)=O)NC(=O)[C@@H](CO)NC(=O)[C@@H](N)Cc1c[nH]cn1)[C@@H](C)O)[C@@H](C)O)C(=O)N[C@@H](CC(=O)O)C(=O)N[C@@H](CCC(=O)O)C(=O)N[C@@H](CCC(=O)O)C(=O)N[C@@H](C)C(=O)N[C@@H](C)C(=O)N[C@@H](CCCNC(=N)N)C(=O)N[C@@H](CC(C)C)C(=O)N[C@@H](Cc1ccccc1)C(=O)N[C@H](C(=O)N[C@@H](CCC(=O)O)C(=O)N[C@@H](Cc1c[nH]c2ccccc12)C(=O)N[C@@H](CC(C)C)C(=O)NC(C)(C)C(=O)N[C@@H](CO)C(=O)NCC(=O)NCC(=O)N1CCC[C@H]1C(=O)N[C@@H](CO)C(=O)N[C@@H](CO)C(=O)NCC(=O)N[C@@H](C)C(=O)N1CCC[C@H]1C(=O)N1CCC[C@H]1C(=O)N1CCC[C@H]1C(=O)N[C@@H](CO)C(N)=O)[C@@H](C)CC)C(=O)O)C(=O)O` [SEQ ID NO: 15, H-dSer-Q-G-T-F-T-S-D-L-S-K-Q-K(γE-γE-x53)-D-E-E-A-A-R-L-F-I-E-W-L-Aib-S-G-G-P-S-S-G-A-P-P-P-S-NH2], the half-maximal effective concentration (EC50) worked out at 1.8 pM.
